# Legend:
# Format in all cases: in vivo
# [1] = tested on: Cabbage Looper [Trichoplusia ni (Hubner)]; experiment: Cabbage looper insecticidal test; settings: second-instar larvae, percent in solution; 3-5 days
# Protocol: (§1) The compounds in Tables 1 and 2 above were tested for insecticidal activity using the following testing procedures. LC50 values, based on the results of these tests and calculated according to dosage-mortality curves, are expressed in Table 3.
# Cabbage Looper [Trichoplusia ni (Hubner)]:
# Test compounds were diluted in a 50-50 acetone-water solution. Cotyledons of hyzini squash (Calabacita abobrinha), approximately 1×1.5 inches, were immersed in the test solutions for 2-3 seconds and placed on a wire screen to dry. The dried leaves were placed in petri dishes containing a moistened piece of filter paper and infested with 5 second-instar cabbage looper larvae. The dishes were placed in a high humidity chamber. Mortality of the larvae was recorded 3-5 days later. Test concentrations ranged from 0.1% downward. The LC-50 value is expressed below in Table 3 under the heading "CL" in terms of percent of the test compound in solution.
# [2] = tested on: Housefly [Musca domestica]; experiment: Housefly insecticidal test; settings: μg per 25 female flies; mortality after 48 hours
# Protocol: as §1
# Housefly [Musca domestica]:
# Test compounds were diluted in acetone and aliquots pipetted onto the bottom of aluminum dishes. To ensure even spreading of the chemical on the bottom of the dishes, 1 ml of acetone containing 0.01% peanut oil was also added to each dish. After all solvents had evaporated, the dishes were placed in circular cardboard cages containing 25 female houseflies, 1-2 days old. The cages were covered on the bottom with cellophane and on the top with tulle netting, and each contained a sugar-water saturated cotton plug for maintenance of the flies. Mortality was recorded after 48 hours. Test levels ranged from 100 μg/25 female houseflies downward. The LC-50 value is expressed below in Table 3 under the heading "HF", in terms of μg of the test compound per 25 female flies.
# [3] = tested on: Tobacco Budworm [Heliothis virescens (Fabricius)] eggs; experiment: Tobacco budworm egg test; settings: 2-day old eggs, percent in solution
# Protocol: as §1
# Tobacco Budworm [Heliothis virescens (Fabricius)]:
# (b). Eggs: Paper towel patches of 2-day old eggs of the tobacco budworm were dipped in acetone solutions of the test compound and placed in petri dishes containing a portion of larval rearing medium. Treated eggs were maintained at 78° F. and mortality was recorded after all control eggs had hatched and the young larvae were feeding on the media. Test concentrations ranged from 0.1% downward. The LC-50 value is expressed below in Table 3 under the heading "TBW-E" in terms of percent of the test compound in the solution.
SMILES,"LC50, CL [1]","LC50, HF [2]","LC50, TBW, E (TBW-E) [3]"
CCC(=Nc1ccc(F)c(Cl)c1)OCc1cccc(Oc2ccc(F)cc2)c1 [Compound 115],0.0012%,10 µg,0.075%
CC(Br)C(=Nc1ccc(F)c(Cl)c1)OCc1cccc(Oc2ccccc2)c1 (stereo not drawn) [Compound 118],0.0013%,18 µg,> 0.1%
CCCCC(=Nc1ccc(F)c(Cl)c1)OCc1cccc(Oc2ccccc2)c1 [Compound 121],0.1%,> 100 µg,> 0.1%
CCCC(=Nc1ccc(F)c(Cl)c1)OCc1cccc(Oc2ccccc2)c1 [Compound 123],0.012%,> 100 µg,> 0.1%
CC(C)C(=Nc1cccc(C#N)c1)OCc1cccc(Oc2ccccc2)c1 [Compound 126],0.08%,> 100 µg,> 0.1%
Cc1cc(N=C(OCc2cccc(Oc3ccccc3)c2)C(C)C)ccc1Br [Compound 127],0.01%,58 µg,0.04%
CC(C)C(=Nc1c(Br)cc(F)cc1Br)OCc1cccc(Oc2ccccc2)c1 [Compound 130],0.005%,> 100 µg,> 0.1%
Cc1cc(Br)ccc1N=C(OCc1cccc(Oc2ccccc2)c1)C(C)C [Compound 133],0.005%,66 µg,0.1%
CC(C)(C)C(=Nc1cccc(Br)c1)OCc1cccc(Oc2ccccc2)c1 [Compound 134],0.015%,> 100 µg,> 0.1%
CC(C)C(=Nc1cccc(I)c1)OCc1cccc(Oc2ccccc2)c1 [Compound 136],0.004%,9 µg,0.08%
CSc1ccc(N=C(OCc2cccc(Oc3ccccc3)c2)C(Cl)Cl)cc1 [Compound 141],< 0.1%,35 µg,> 0.1%
Cc1cccc(N=C(OCc2cccc(Oc3ccccc3)c2)C(C)C)c1C [Compound 148],0.0025%,18 µg,0.025%
COc1ccc(C)cc1N=C(OCc1cccc(Oc2ccccc2)c1)C(C)C [Compound 150],0.01%,89 µg,> 0.1%
CCCCc1ccc(N=C(OCc2cccc(Oc3ccccc3)c2)C(C)C)cc1 [Compound 152],0.009%,> 100 µg,> 0.1%
CCC(=Nc1ccc(CC)cc1)OCc1cccc(Oc2ccccc2)c1 [Compound 157],0.009%,25 µg,> 0.1%
Cc1ccc(N=C(OCc2cccc(Oc3ccccc3)c2)C(C)C)cc1C [Compound 158],0.003%,9 µg,0.1%
CCOc1ccc(N=C(OCc2cccc(Oc3ccccc3)c2)C(C)(C)C)cc1 [Compound 164],0.005%,> 100 µg,> 0.1%
CC(C)c1ccc(N=C(OCc2cccc(Oc3ccccc3)c2)C(C)(C)C)cc1 [Compound 165],0.007%,> 100 µg,> 0.1%
CSc1cccc(N=C(OCc2cccc(Oc3ccccc3)c2)C(C)C)c1 [Compound 166],0.009%,22 µg,> 0.1%

SMILES,"LC50, CL [1]","LC50, HF [2]","LC50, TBW, E (TBW-E) [3]"
Cc1ccc(N=C(OCc2cccc(Oc3ccccc3)c2)C(C)(C)C)cc1C [Compound 167],0.02%,> 100 µg,> 0.1%
CCOC(=O)c1cccc(N=C(OCc2cccc(Oc3ccccc3)c2)C(C)(C)C)c1 [Compound 168],0.1%,> 100 µg,> 0.1%
COc1ccc(N=C(OCc2cccc(Oc3ccccc3)c2)C(C)C)cc1OC [Compound 169],0.009%,10 µg,> 0.1%
CC(=O)c1cccc(N=C(OCc2cccc(Oc3ccccc3)c2)C(C)C)c1 [Compound 170],0.1%,37 µg,> 0.1%
CCOc1cccc(N=C(OCc2cccc(Oc3ccccc3)c2)C(C)C)c1 [Compound 171],0.01%,80 µg,> 0.1%
CC(C)(C)C(=Nc1cccc([N+](=O)[O-])c1)OCc1cccc(Oc2ccccc2)c1 [Compound 175],0.018%,> 100 µg,> 0.1%
CC(C)C(=Nc1ccc2c(c1)OC(C)(C)O2)OCc1cccc(Oc2ccccc2)c1 [Compound 182],0.0006%,28 µg,0.04%
CC(C)C(=Nc1ccc2c(c1)OCO2)OCc1cccc(Oc2ccccc2F)c1 [Compound 183],0.00075%,10 µg,0.075%
CCCC(=Nc1ccc(OC)cc1)OCc1cccc(Oc2ccccc2)c1 [Compound 184],0.024%,61 µg,> 0.1%
CCC(C)C(=Nc1ccc2c(c1)OCO2)OCc1cccc(Oc2ccccc2)c1 (stereo not drawn) [Compound 185],0.0006%,13 µg,0.075%
CC(C)C(=Nc1ccc2c(c1)OCO2)OCc1cccc(Oc2ccccc2F)c1 [Compound 190],0.0004%,7.5 µg,0.023%
CC(C)C(=Nc1cccc(C(F)(F)F)c1)OCc1cccc(Oc2cccc(F)c2)c1 [Compound 192],0.0012%,25 µg,0.07%
CC(C)C(=Nc1ccc(Cl)c(C(F)(F)F)c1)OCc1cccc(Oc2cccc(F)c2)c1 [Compound 195],0.002%,> 100 µg,> 0.1%
CC(C)C(=Nc1ccc(F)cc1)OCc1cccc(Oc2ccc(F)cc2)c1 [Compound 197],0.0004%,> 100 µg,0.05%
CC(C)C(=Nc1cccc(F)c1)OCc1cccc(Oc2ccc(F)cc2)c1 [Compound 200],0.00075%,7.5 µg,0.1%
COc1cccc(N=C(OCc2cccc(Oc3ccc(F)cc3)c2)C(C)C)c1 [Compound 201],0.004%,15 µg,> 0.1%
CC(C)C(=Nc1ccc(F)cc1)OCc1cccc(Oc2cccc(Cl)c2)c1 [Compound 205],0.004%,50 µg,> 0.1%
CC(C)C(=Nc1ccc(F)cc1)OCc1cccc(Oc2ccc(F)cc2F)c1 [Compound 206],0.0017%,50 µg,> 0.1%
CC(C)C(=Nc1ccc(Cl)c(Cl)c1)OCc1cccc(Oc2cccc(Cl)c2)c1 [Compound 207],0.008%,> 100 µg,> 0.1%

# — US5070210A, “Novel ketenimines as intermediates for insecticides” (ICI Americas Inc., priority 1990, dated 1991)
